The test deals with COS-1 cells. As to the kind of experiment: Cell transfection assay (β-galactosidase reporter gene activity). Particulars: compared to Lipofectamine. It counts as cell-based, African green monkey. How it is done:
Separate 1 mole (80 l of a 0.0126 M stock solution in chloroform) of N,N-di-n-hexadecyl-N,N-dihydroxyethylammonium bromide (DHDEAB) and 1 mole of the neutral colipid cholesterol (40 l of a 0.0255 M stock solution in chloroform) were combined in a glass vial. The solvent was evaporated initially by a thin flow of moisture free nitrogen and then under high flow for two minutes and then further dried under vacuum (1 mm Hg) for 6 hours.
The dried lipid film was then hydrated with sterile deionized water (1 ml) overnight (9-10 hours) in room temperature to produce a dispersed suspension. The hydrated mixture was then vortexed for 1 minute and was sonicated in a probe sonicator at a constant 25 W sonic power for 5 minutes. The concentrations of both DHDEAB and cholesterol in the resulting solution obtained after sonication was 1 mM. […]
For protein estimation, the resultant medium was removed from the plates and the cells were washed with PBS- Lysis buffer (1001 containing 250 mM Tris.HCl, pH 8.0, 0.5% NP40) was added and the cells were lysed for 30 minutes. […] The plates were read in an Elisa reader (Molecular Devices, Vmax) with a 650 nm filter. […]
The level of galactosidase activity in a 501 lysate was measured by adding to 501 of 2× gal mixture containing 1.33 mg/ml o-nitrophenyl--D-galactopyranoside (Sigma N1127), 200 mM sodium phosphate pH 7.15 and […]. […]

Turning to “N,N,-di[O-hexadecanoyl]hydroxyethyl-N-hydroxyethyl-N-methylammonium bromide [amphiphile No. 5]”, the “in vitro transfection efficiencies” value is recorded as “enhanced”.

As for `CCCCCCCCCCCCCCCC[N+](CCO)(CCO)CCCCCCCCCCCCCCCC` [amphiphile No. 1, N,N-di-n-hexadecyl-N, N-dihydroxyethylammonium bromide], the “in vitro transfection efficiencies” value is listed as “enhanced”.
